These are literature values, as cited in the CATMoS acute toxicity set (Mansouri et al. 2021).

A short description of the data set: rat acute oral toxicity. Particulars: in vivo.
In general, LD50 refers to the dose expected to kill half of the subjects tested. As for `CCOC(=O)C1=C(C)NC(C)=C(C(=O)OC)C1c1cccc(Cl)c1Cl` (stereo not drawn), the LD50 is 1050 mg/kg.
`COc1ccc2c3c1O[C@H]1C(=O)CC[C@H]4[C@@H](C2)N(C)CC[C@]314`: the LD50 was 375 mg/kg.
`Cc1ccccc1NCCO`: the LD50 is 2200 mg/kg.
Regarding `C[C@H](NCCc1ccc(O)cc1)[C@H](O)c1ccc(O)cc1`, the median lethal dose (LD50) was 1840 mg/kg.
Turning to `COc1ccc(CN2CCNCC2)c(OC)c1OC`, the LD50 was 1700 mg/kg.
Take `O=C=Nc1ccc(Cl)c(C(F)(F)F)c1`: the LD50 is 500 mg/kg.
In the case of `COC(=O)c1ccc(C(=O)OC)cc1`, the median lethal dose (LD50) was 4390 mg/kg.
As for `OCCN1CCCN(CCCN2c3ccccc3C=Cc3ccccc32)CC1`, the LD50 was 2410 mg/kg.
Turning to `c1ccc(C2(c3ccccc3)COC(c3ccccc3)(C3CCCCN3)OC2)cc1` (stereo not drawn), the median lethal dose (LD50) is 300 mg/kg.
In the case of `O=C(O)CCCCCCl`, the LD50 is 3080 mg/kg.
Take `Cc1ccc(/N=N/c2c(O)c(S(=O)(=O)O)cc3ccc(S(=O)(=O)O)cc23)c(C)c1`: the LD50 was 23200 mg/kg.
Turning to `COc1ccc2c(c1)c(CC(=O)OCOC(=O)c1ccccc1)c(C)n2C(=O)c1ccc(Cl)cc1`, the LD50 was 73 mg/kg.
Take `Nc1ncnc2c1ccn2C1OC(CO)C(O)C1O` (stereo not drawn): the 50% lethal dose (LD50) was 16 mg/kg.
Regarding `CN1C(C(=O)Nc2nccs2)=C(O)c2ccccc2S1(=O)=O`, the median lethal dose (LD50) is 136 mg/kg.
Turning to `CCCCCC(C)NC` (stereo not drawn), the 50% lethal dose (LD50) is 320 mg/kg.
On to `NS(=O)(=O)c1ccc(Cl)c(S(N)(=O)=O)c1`, for which the LD50 was 340 mg/kg.
For `CN(CO)C(=O)Oc1cccc2ccccc12`, the LD50 is 5360 mg/kg.
Consider `O=C(CN1CCNCC1)NC1CCCCC1`, for which the LD50 is 3900 mg/kg.
Take `CC(C)=CC1C(C(=O)OCc2cc3c(cc2Cl)OCO3)C1(C)C` (stereo not drawn): the LD50 is 15000 mg/kg.
Regarding `Nc1ccc2c(S(=O)(=O)O)cccc2c1S(=O)(=O)O`, the LD50 was 5430 mg/kg.
Consider `NNC(=O)[C@@H](N)CS`, for which the LD50 was 1050 mg/kg.
Regarding `CCOC(=O)N1C(=O)NC(c2ccccc2)(c2ccccc2)C1=O`, the LD50 is 3500 mg/kg.
As to `CCON(CC)N=O`, the LD50 was 1000 mg/kg.
As to `CCc1cc(S(=O)(=O)O)c2cc(C(C)C)cccc1-2`, the LD50 is 1100 mg/kg.
Consider `CCOP(=S)(OCC)SCn1nc(Cl)c(Cl)cc1=O`, for which the LD50 is 1880 mg/kg.
Consider `C[C@H]1OC(O[C@H]2[C@@H](O)CC(O[C@H]3[C@@H](O)CC(O[C@H]4CC[C@@]5(C)[C@H](CC[C@@H]6[C@@H]5CC[C@]5(C)[C@@H](C7=CC(=O)OC7)[C@@H](OC=O)C[C@]65O)C4)O[C@@H]3C)O[C@@H]2C)C[C@H](O)[C@@H]1O` (stereo partly drawn), for which the LD50 is 30 mg/kg.
With `CON(C)C(=O)/C=C(\C)OP(=O)(OC)OC`, the 50% lethal dose (LD50) is 2 mg/kg.
Regarding `O=NN(CC(F)(F)F)CC(F)(F)F`, the LD50 is 300 mg/kg.
With `Cc1cccc(NC(=S)N(C)C)c1`, the 50% lethal dose (LD50) was 2200 mg/kg.
Consider `CCCCCCCc1ccccc1O`, for which the LD50 was 2750 mg/kg.
As for `Nc1ncc(C=Cc2ccc([N+](=O)[O-])o2)nn1`, the LD50 is 250 mg/kg.
For the compound `CC(C)CC(C)OC(=O)/C=C\C(=O)OC(C)CC(C)C` (stereo not drawn), the median lethal dose (LD50) was 7340 mg/kg.
On to `CC1COC2(c3ccccc3Cl)c3cc(Cl)ccc3NC(=O)CN12` (stereo not drawn), for which the median lethal dose (LD50) is 4500 mg/kg.
Consider `CCCC(=O)c1ccc2c(c1)N(CCCN1CCOCC1)c1ccccc1S2`, for which the 50% lethal dose (LD50) is 3500 mg/kg.
On to `CCN(CC)CCOc1ccccc1-n1c(C)ccc1-c1ccccc1`, for which the 50% lethal dose (LD50) is 700 mg/kg.
`COc1c(Cl)c(Cl)c(OC)c2[nH]c(C(F)(F)F)nc12`: the 50% lethal dose (LD50) is 100 mg/kg.
`CC(C)(C)C(=O)CCC1C(=O)N(c2ccccc2)N(c2ccccc2)C1=O`: the median lethal dose (LD50) was 455 mg/kg.
For the compound `CC(C)Cc1cccc2c(CC(=O)O)cccc12`, the 50% lethal dose (LD50) was 600 mg/kg.
As for `COc1ccc(C2Sc3ccccc3N(CCN(C)C)C(=O)C2OC(C)=O)cc1` (stereo not drawn), the LD50 was 560 mg/kg.
Take `CCCOP(=S)(CCl)Sc1ccc(Cl)cc1` (stereo not drawn): the LD50 was 80 mg/kg.
`Cc1cc2[nH]c(C(F)(F)F)nc2c([N+](=O)[O-])c1C`: the median lethal dose (LD50) was 67 mg/kg.
As for `O=c1[nH]c(=O)n([C@H]2C[C@H](O)[C@@H](CO)O2)cc1Br`, the LD50 was 8400 mg/kg.
For `COc1cc(C(=O)N(C)C)nn1-c1cccc(Cl)c1`, the LD50 is 790 mg/kg.
